Reference: patent US10973245B2, “Immunomodulatory and growth promoting and controlling composition of intestinal microbiota undesirable bacteria and its use” (YESSINERGY HOLDING S/A, priority 2016, dated 2021)
Marks after values point to notes of the source that are not given here.

Legend:
Salmonella = Salmonella Control Efficiency Index by 'propé' drag swab tests, commercial broiler chickens; format: in vivo; details: Antibiotic=100
Method: (§1) Formulations of examples 2 and 3 were administered to commercial broiler chickens, with an inclusion of 2 kg per ton of feed. The results are shown in Tables 12 (Diets with Zinc Bacitracin Antibiotic, As Growth Promoter Additives), 13 (Diets with the Composition of Example 2, as Growth Promoter Additives) and 14 (Diets with the Composition of Example 3, As Growth Promoter Additive) below.
(§2) Note: (*)—Salmonella Control Efficiency Index, measured by conducting a ‘propé’ [shoe covers] drag swab tests. Antibiotic=100 (**)—Zinc Bacitracin

[1] = Growth promoter additives in commercial broiler chicken diets (Examples 2 and 3 vs Zinc Bacitracin); format: in vivo, commercial broiler chickens
Method: as §1, §2

[2] = Piglet performance with growth promoting additives (Example 4); format: in vivo, PIC genetics; details: piglets 22 to 64 days of age
Method: (§3) Composition of Example 4 was tested in piglets to evaluate their performance ratio in comparison with growth promoter antibiotic (GPA) and with sodium butyrate. All were added to the rations of the respective treatments as growth promoting additives.
(§4) Sixty-three piglets were weaned at 22 days of age, with a start average body weight of 5.48 kg, both sexes, PIC genetics. The animals were separated by sex and distributed into 3 treatments, with 7 replicates of 3 animals each, during the whole period (22 to 64 days of age). Diet was formulated without Zinc Oxide or any other antimicrobial.
(§5) T1: Basal Diet+GPA (colistin 8%—40 ppm)
(§6) T2: Basal Diet+Sodium Butyrate 30% (1 kg/t)
(§7) T3: Basal Diet+Composition of the Invention of Example 4 (2 kg/t)

[3] = Fatty acids in cecum of piglets (Example 4); format: in vivo, PIC genetics
Method: as §3, §4, §5, §6, §7

[4] = system: sulfite-reducing Clostridium; experiment: Sulfite-reducing Clostridium CFU count in cecum fecal material of challenged chickens (Examples 8, 9, 10); format: in vivo; details: cecum fecal material at 28 days; colony forming units
Excerpt: Compositions of examples 8, 9 and 10 were used as growth promoting additives for growing chicken feeds, i.e., during the first 28 days of life, to evaluate the control of Salmonella heidelbergii. On the fourth day of life, 20% of the birds were inoculated with Salmonella heidelbergii. At the end of the 28 days, fecal material was collected from the cecum of the birds and the counting of colony forming units (CFUs) of Salmonella and sulfite-reducing Clostridium.
The treatments were as follows:
T1: Basal Diet+SH Challenge—WITHOUT GPA (growth promoting antibiotic)
T2: Basic Diet+SH+APC Challenge (Enramicima 8 ppm)
T3: Basal Diet+SH Challenge+Sodium Butyrate (1.5 kg/t of feed)
T4: Basal Diet+Composition of the Invention of Example 8—3 kg/t
T5: Basal Diet+Composition of the Invention of Example 9—3 kg/t
T6: Basal Diet+Composition of the Invention of Example 10—3 kg/t
T7: Basal Diet+Composition of the Invention of Example 9—3 kg/t+Probiotic

[5] = Diarrhea index in piglets (Example 4); format: in vivo, PIC genetics
Method: as §3, §4, §5, §6, §7

## Zinc Bacitracin
Salmonella; Average of Productions 1-4
  Control of Salmonella (Salmonella Control Efficiency Index): 100
Salmonella; Production 1
  Control of Salmonella (Salmonella Control Efficiency Index): 100
Salmonella; Production 2
  Control of Salmonella (Salmonella Control Efficiency Index): 100
Salmonella; Production 3
  Control of Salmonella (Salmonella Control Efficiency Index): 100
Salmonella; Production 4
  Control of Salmonella (Salmonella Control Efficiency Index): 100
[1]; Average of Productions 1-4
  Feed Conversion: 1.69
  Final Average Body Weight: 3.11 kgBW/bird
  Food Intake: 5.159 kg/Bird
[1]; Production 1
  Feed Conversion: 1.72
  Final Average Body Weight: 3.14 kgBW/bird
  Food Intake: 5.329 kg/Bird
[1]; Production 2
  Feed Conversion: 1.71
  Final Average Body Weight: 3.07 kgBW/bird
  Food Intake: 5.167 kg/Bird
[1]; Production 3
  Feed Conversion: 1.60
  Final Average Body Weight: 3.20 kgBW/bird
  Food Intake: 5.034 kg/Bird
[1]; Production 4
  Feed Conversion: 1.72
  Final Average Body Weight: 3.01 kgBW/bird
  Food Intake: 5.105 kg/Bird

## CCCC(=O)[O-].[Na+] [Sodium Butyrate]
[2]
  CA = feed conversion: 2.07
[3]
  Fatty acids in Cecum: Acetic: 0.38
  Fatty acids in Cecum: Butyric: 0.18
  Fatty acids in Cecum: Propionic: 0.32^a
  Fatty acids in Cecum: Total: 0.87
[4]
  Sulfite-reducing Clostridium: 4959
[5]; Grade I
  Diarrhea index: 22^b
[5]; Grade II
  Diarrhea index: 33^ab
[5]; Grade III
  Diarrhea index: 53^b
